Results taken from patent US8658566B2, “Composition and method for controlling plant diseases” (Sumitomo Chemical Company, Limited, priority 2009, dated 2014).

Test system: Pythium damping-off pathogen (Pythium irregulare)
Test: Cucumber seed treatment test against Pythium damping-off (Test Example 1)
Assay type: in vivo
Conditions: cucumber (Sagamihanjiro) seed treatment, 20° C., 8 days
Experimental: A DMSO solution of the compound I and a DMSO solution of ethaboxam were respectively prepared. These solutions were mixed to prepare a DMSO solution containing predetermined concentrations of the compound I and ethaboxam. Ten (10) μL of the DMSO solution and 1 g of cucumber (Sagamihanjiro) seeds were mixed by shaking in a 15-ml conical tube and then allowed to stand overnight to prepare treated seeds. A plastic pot was filled with sandy soil and the treated seeds were sown on it and then covered with sandy soil which had been mixed with a bran culture of Pythium damping-off pathogen (Pythium irregulare). The sown seeds were watered and then cultured in a cultivation room at 20° C. for 8 days. The occurrence of Pythium damping-off diseases was checked and the incidence of disease was calculated by Equation 1.
For comparison, a DMSO solution containing a predetermined concentration of ethaboxam was prepared and subjected to the same test and then the incidence of disease was determined.
In order to calculate a control value, the same test was conducted in which the plants had been treated with none of the test compounds and the incidence of disease was determined.
The control value was calculated by the Equation 2 based on the incidence of disease thus determined. […]

With `CCNc1nc(CC)c(C(=O)NC(C#N)c2cccs2)s1` (centres unmarked) [Ethaboxam] as the molecule, how does the Control value (ethaboxam 2 g/100 kg seeds alone (compound I 0)) read?
Its Control value is 43.

What about the Control value (ethaboxam 10 g/100 kg seeds alone (compound I 0)) of the same molecule?
The Control value was 64.
